Consider 50 molecules from PMC12142043, “Cell-based high-content approach for SARS-CoV-2 neutralization identifies unique monoclonal antibodies and PI3K pathway inhibitors” (Frontiers in Cell and Developmental Biology, 2025).

For this assay, the system named is SARS-CoV-2 (USA-WA1/2020) in Calu-3 cells. Format: cell-based. The settings on record: Calu-3, 48 h; for dsRNA signal, AU High: high dose (10 µM); for dsRNA signal, AU Low: low dose (100 nM).

Where a name gives a salt, the structure may show the parent alone.

As to `FC(F)(F)c1ccc(CNc2ccc(Cc3c[nH]c4ncc(Cl)cc34)cn2)cn1` [Pexidartinib (PLX3397)], the “dsRNA signal, AU High” value is 64762.3 AU and the “dsRNA signal, AU Low” value was determined as 40586.0 AU.

With `CCc1nc(-c2cccc(C)c2)c(-c2ccnc(NC(=O)c3ccccc3)c2)s1` [TAK-715], the “dsRNA signal, AU High” value was 42569.8 AU and the “dsRNA signal, AU Low” value was found to be 29513.1 AU.

As for `Oc1cccc(-c2nc(N3CCOCC3)c3oc4ncccc4c3n2)c1` [PI-103], the “dsRNA signal, AU High” value amounted to 0.0 AU and the “dsRNA signal, AU Low” value turned out to be 40731.1 AU.

For `NC1(Cc2ccc(Cl)cc2)CCN(c2ncnc3[nH]ccc23)CC1` [CCT128930], the “dsRNA signal, AU High” value is recorded as 1507.6 AU and the “dsRNA signal, AU Low” value was 9152.4 AU.

As for `CCC(=O)Nc1cccc(Oc2nc(Nc3ccc(N4CCN(C)CC4)cc3OC)ncc2Cl)c1` [WZ4003], the “dsRNA signal, AU High” value amounted to 30589.4 AU and the “dsRNA signal, AU Low” value amounted to 38446.0 AU.

Regarding `CC(C)n1c(=O)n(C)c2cnc3cc(F)c(-c4ccc(OCCCN5CCCCC5)nc4)cc3c21` [AZD1390], the “dsRNA signal, AU High” value turned out to be 7959.8 AU and the “dsRNA signal, AU Low” value worked out at 37767.2 AU.

Take `COc1ccc(C[C@H]2NC[C@H](O)[C@H]2OC(C)=O)cc1` [Anisomycin]: the “dsRNA signal, AU High” value is 20082.7 AU and the “dsRNA signal, AU Low” value is on record as 2629.3 AU.

As for `O=c1c(O)c(-c2ccc(O)c(O)c2)oc2cc(O)cc(O)c12` [Quercetin dihydrate], the “dsRNA signal, AU High” value amounted to 25411.6 AU and the “dsRNA signal, AU Low” value is 6435.1 AU.

Take `CN1CCC(CNc2ccc3ncc(-c4cccc(OC(F)(F)F)c4)n3n2)CC1` [SGI-1776 free base]: the “dsRNA signal, AU High” value amounted to 1583.1 AU and the “dsRNA signal, AU Low” value worked out at 29976.5 AU.

Consider `Nc1ncnc2c1c(I)cn2[C@@H]1O[C@H](CO)[C@@H](O)[C@H]1O` [5-Iodotubercidin], for which the “dsRNA signal, AU High” value was determined as 2639.0 AU and the “dsRNA signal, AU Low” value worked out at 20167.4 AU.

Regarding `O=C(Nc1cc(C(F)(F)F)cc(C(F)(F)F)c1)c1cc(Cl)ccc1O` [IMD 0354], the “dsRNA signal, AU High” value came out at 3341.9 AU and the “dsRNA signal, AU Low” value came out at 20862.1 AU.

Regarding `O=C(NCc1cccc(O)c1)Nc1nc(-c2ccncc2)cs1` [RKI-1447], the “dsRNA signal, AU High” value is on record as 1722.0 AU and the “dsRNA signal, AU Low” value turned out to be 7250.9 AU.

On to `C=CC(=O)Nc1cccc(Nc2nc(Nc3ccc(N4CCN(C(C)=O)CC4)cc3OC)ncc2C(F)(F)F)c1` [CO-1686 (AVL-301)], for which the “dsRNA signal, AU High” value was found to be 16434.5 AU and the “dsRNA signal, AU Low” value is recorded as 26200.1 AU.

For the molecule `O=C(/C=C/c1ccc(O)c(O)c1)c1ccc(O)cc1O` [Butein], the “dsRNA signal, AU High” value amounted to 38311.3 AU and the “dsRNA signal, AU Low” value came to 14009.4 AU.

Turning to Telatinib (BAY 57-9352), the “dsRNA signal, AU High” value was determined as 46565.4 AU and the “dsRNA signal, AU Low” value amounted to 19646.6 AU.

Regarding `O=c1cc(-c2cccc3c2Sc2ccccc2S3)oc(N2CCOCC2)c1` [KU 55933], the “dsRNA signal, AU High” value is on record as 33867.0 AU and the “dsRNA signal, AU Low” value stood at 52307.6 AU.

`O=C(O)/C=C/C(=O)O` [Fumalic acid]: the “dsRNA signal, AU High” value turned out to be 4691.7 AU and the “dsRNA signal, AU Low” value was found to be 6874.3 AU.

On to `O=C(O)c1ccc2c(c1)nc(Nc1cccc(Cl)c1)c1ccncc12` [CX-4945 (Silmitasertib)], for which the “dsRNA signal, AU High” value worked out at 35326.5 AU and the “dsRNA signal, AU Low” value was found to be 21811.4 AU.

Consider `COc1cc(Nc2c(C#N)cnc3cc(OCCCN4CCN(C)CC4)c(OC)cc23)c(Cl)cc1Cl` [Bosutinib (SKI-606)], for which the “dsRNA signal, AU High” value is 38090.7 AU and the “dsRNA signal, AU Low” value is 42027.4 AU.

Turning to `CC(O)C(=O)O.CC(O)C(=O)O.CN1CCN(c2ccc3nc(-c4c(N)c5c(F)cccc5[nH]c4=O)[nH]c3c2)CC1` [Dovitinib Dilactic acid], the “dsRNA signal, AU High” value worked out at 47107.5 AU and the “dsRNA signal, AU Low” value came to 17331.2 AU.

For the molecule `COc1cc2nccc(Oc3ccc(NC(=O)Nc4cc(C)on4)c(Cl)c3)c2cc1OC` [Tivozanib (AV-951)], the “dsRNA signal, AU High” value came to 40142.9 AU and the “dsRNA signal, AU Low” value was found to be 36133.0 AU.

In the case of `Cc1cccc(-c2nn3c(c2-c2ccnc4ccc(C(N)=O)cc24)CCC3)n1` [LY2157299], the “dsRNA signal, AU High” value came out at 33079.0 AU and the “dsRNA signal, AU Low” value came out at 15107.1 AU.

For `CCCCCCCCCCCC(=O)OC[C@H](CO)OC(=O)CCCCCCCCCCC` [1,2-Dilauroyl-sn-glycerol], the “dsRNA signal, AU High” value is 32229.3 AU and the “dsRNA signal, AU Low” value came to 52450.9 AU.

As for `O=c1[nH]c2ccc(Cl)cc2c(N[C@@H]2CN3CCC2CC3)c1-c1nc2ccccc2[nH]1` [CHIR-124], the “dsRNA signal, AU High” value was 9794.1 AU and the “dsRNA signal, AU Low” value is 2244.6 AU.

As to `O=C(NOCC(O)CO)c1cc(Br)c(F)c(F)c1Nc1ccc(I)cc1F` (stereo not shown) [PD318088], the “dsRNA signal, AU High” value is 9157.7 AU and the “dsRNA signal, AU Low” value is recorded as 11553.5 AU.

For the molecule `NC(=O)c1ccc2nc(-c3ccc(Oc4ccc(Cl)cc4)cc3)[nH]c2c1` [BML-277], the “dsRNA signal, AU High” value was 33021.5 AU and the “dsRNA signal, AU Low” value is on record as 13488.9 AU.

As to `NC(=O)c1ccc(-c2nc(-c3ccc4c(c3)OCO4)c(-c3ccccn3)[nH]2)cc1` [SB 431542], the “dsRNA signal, AU High” value is 540.4 AU and the “dsRNA signal, AU Low” value stood at 12958.4 AU.

Regarding `CCS(=O)(=O)N1CCN(c2ccc(Nc3ncc(C(N)=O)c(NC4CC4)n3)cc2)CC1` [Cerdulatinib (PRT062070)], the “dsRNA signal, AU High” value was found to be 60131.0 AU and the “dsRNA signal, AU Low” value is 21245.1 AU.

As for `Oc1ccc(-c2nc(-c3ccc(F)cc3)c(-c3ccncc3)[nH]2)cc1` [SB202190 (FHPI)], the “dsRNA signal, AU High” value is given as 29217.1 AU and the “dsRNA signal, AU Low” value is 9508.1 AU.

Take `Cc1ccc(Nc2nccc(N(C)c3ccc4c(C)n(C)nc4c3)n2)cc1S(N)(=O)=O` [Pazopanib (GW-786034)]: the “dsRNA signal, AU High” value was 41143.8 AU and the “dsRNA signal, AU Low” value was determined as 22671.3 AU.

For `CN(C)Cc1cccc(N/C(=C2\C(=O)Nc3cc(C(N)=O)ccc32)c2ccccc2)c1` [BIX 02188], the “dsRNA signal, AU High” value came to 40230.6 AU and the “dsRNA signal, AU Low” value is on record as 23376.7 AU.

In the case of `O=C(Nc1nc2cccc(-c3ccc(CN4CCS(=O)(=O)CC4)cc3)n2n1)C1CC1` [GLPG0634], the “dsRNA signal, AU High” value is 36.1 AU and the “dsRNA signal, AU Low” value turned out to be 2690.2 AU.

Take `O=C(Nc1ccccc1C(=O)NC1CCCCNC1=O)c1cc2ccccc2s1` (stereo not shown) [ANA 12]: the “dsRNA signal, AU High” value was 5083.5 AU and the “dsRNA signal, AU Low” value was determined as 20498.0 AU.

On to `C#Cc1cccc(Nc2ncnc3cc(OCCOC)c(OCCOC)cc23)c1` [Erlotinib Hydrochloride], for which the “dsRNA signal, AU High” value came to 3624.7 AU and the “dsRNA signal, AU Low” value is 52457.7 AU.

As for `COc1cc(Nc2ncc(F)c(Nc3ccc4c(n3)NC(=O)C(C)(C)O4)n2)cc(OC)c1OC` [R406 (free base)], the “dsRNA signal, AU High” value is 42129.8 AU and the “dsRNA signal, AU Low” value worked out at 55638.2 AU.

With `CC(C)n1nc(-c2cc3cc(O)ccc3[nH]2)c2c(N)ncnc21` [PP242], the “dsRNA signal, AU High” value stood at 7321.2 AU and the “dsRNA signal, AU Low” value was determined as 32614.7 AU.

For `O=C(Nc1ccc(CN2CCOCC2)cc1)c1ccc(-c2cccc(Cl)c2)o1` [CID 2011756], the “dsRNA signal, AU High” value came out at 3490.5 AU and the “dsRNA signal, AU Low” value was 12424.4 AU.

Take `C[n+]1cc2c3c(ccc2c2ccc4cc5c(cc4c21)OCO5)OCO3` [Sanguinarine chloride]: the “dsRNA signal, AU High” value is reported as 0.0 AU and the “dsRNA signal, AU Low” value was found to be 15548.2 AU.

As to `Cc1ccc(NC(=O)c2ccc(CN3CC[C@H](N(C)C)C3)c(C(F)(F)F)c2)cc1Nc1nccc(-c2cncnc2)n1` [Bafetinib (INNO-406)], the “dsRNA signal, AU High” value is recorded as 1113.6 AU and the “dsRNA signal, AU Low” value is on record as 32473.2 AU.

For the molecule `COc1cc(Nc2ncc3c(n2)-c2ccc(Cl)cc2C(c2c(F)cccc2OC)=NC3)ccc1C(=O)O` [MLN8237 (Alisertib)], the “dsRNA signal, AU High” value turned out to be 9976.5 AU and the “dsRNA signal, AU Low” value was 32491.8 AU.

On to `COc1cc(-c2cc(-c3cccc(O)c3)cnc2N)cc(OC)c1OC` [K02288], for which the “dsRNA signal, AU High” value is recorded as 4456.5 AU and the “dsRNA signal, AU Low” value worked out at 7061.1 AU.

For the molecule `Cn1cnc(N)c2ncnc1-2` [3-Methyladenine], the “dsRNA signal, AU High” value is 32357.3 AU and the “dsRNA signal, AU Low” value came to 26977.2 AU.

On to `Cc1cc(CN2CCN(c3c(Br)cnc4nc(-c5ccc(N6CCN(C)CC6)cc5)[nH]c34)CC2)no1` [CCT137690], for which the “dsRNA signal, AU High” value was determined as 0.0 AU and the “dsRNA signal, AU Low” value was 46657.6 AU.

Take `COc1cc(N2CCC(O)CC2)ccc1Nc1cc(Nc2ccccc2S(=O)(=O)C(C)C)c2cc[nH]c2n1` [Mps1-IN-1]: the “dsRNA signal, AU High” value was found to be 7290.6 AU and the “dsRNA signal, AU Low” value amounted to 34349.9 AU.

`CC(=O)NCCc1c[nH]c2ccc(O)cc12` [N-Acetylserotonin]: the “dsRNA signal, AU High” value was determined as 219.3 AU and the “dsRNA signal, AU Low” value is reported as 53222.8 AU.

Regarding `C#Cc1cccc(Nc2ncnc3cc(OCCOC)c(OCCOC)cc23)c1` [Erlotinib], the “dsRNA signal, AU High” value was 7272.0 AU and the “dsRNA signal, AU Low” value is 15317.7 AU.

Regarding `Cl.O=S(=O)(c1cccc2c(I)cccc12)N1CCCNCC1` [ML-7 hydrochloride], the “dsRNA signal, AU High” value is reported as 19324.6 AU and the “dsRNA signal, AU Low” value is 18346.9 AU.

As to `O=C(O)C(Cc1ccccc1[N+](=O)[O-])=NNc1nc(-c2ccc(Cl)c(Cl)c2)cs1` (mixture of isomers) [4EGI-1], the “dsRNA signal, AU High” value was 27081.3 AU and the “dsRNA signal, AU Low” value is on record as 17726.3 AU.

For the molecule `CC(C)(C)n1nc(-c2ccc(Cl)cc2)c2c(N)ncnc21` [PP 2 (AG 1879)], the “dsRNA signal, AU High” value amounted to 53589.5 AU and the “dsRNA signal, AU Low” value was determined as 40414.9 AU.

Take `O=C1NC(=O)/C(=C\c2ccc3nccnc3c2)S1` [AS-605240]: the “dsRNA signal, AU High” value was 11785.5 AU and the “dsRNA signal, AU Low” value is 49405.3 AU.
